The nature of test [1]: In vivo CT of filler nodule volume, density and 3D shape after test solutions 0-8 (Example 3). The conditions noted are these: for Change in Volume as percent of Injected Volume, Day 14/15: Example 3 (Day 14); for Change in Volume as percent of Injected Volume, Day 14/15 / Change in Volume as percent of Injected Volume, Day 0 + 1 h 15 / Change in Volume as percent of Injected Volume, Day 0 + 2 h / Change in Volume as percent of Injected Volume, Day 0 + 4 h / Change in Volume as percent of Injected Volume, Day 1 / Change in Volume as percent of Injected Volume, Day 3 / Change in Volume as percent of Injected Volume, Day 7: mean; for Change in Volume as percent of Injected Volume, Day 0 + 1 h 15 / Change in Volume as percent of Injected Volume, Day 0 + 2 h / Change in Volume as percent of Injected Volume, Day 0 + 4 h / Change in Volume as percent of Injected Volume, Day 1 / Change in Volume as percent of Injected Volume, Day 3 / Change in Volume as percent of Injected Volume, Day 7: Example 3; for Change in Volume as percent of Injected Volume, Day 0 + 1 h 15: 1.5 mL solution into 500 μl nodule; for effect on volume at the filler injection site: after 7 and 14 days, vs untreated. Here is the method: One hour after filler injections (T=1 h), 1.5 mL of selected solutions (Table 5, solutions 0-8, test items, solution 0 is normal saline and not hyperosmotic) were injected each into 9 dermal filler nodules in the right flank (ventral area).
A total of 7 CT-scans were performed at 1 h 15, 2 h, 4 h, 1 day (24 h), 3, 7 and 14 days after injection of the dermal filler. The clinical state of each animal is assessed once a week by body weight measurement and clinical observations.
The 10 SC injections of dermal filler on Day 0 were performed in the ventral area, (five nodules on each flank of the ventral area) for each pig. For each SC nodule, a theoretical volume of 500 μl was administered. One hour (±5 min) after injection of dermal filler, SC injection of the different solutions (prepared the day before) were performed into nine (9) nodules of dermal. For each SC nodule, a theoretical volume of 1.5 mL of test solution was administered.
The X-ray computed tomography acquisitions were performed with the Computed Tomography Scanner BrightSpeed 16 (General Electric). In order to measure the volume and the mean density and to visualize the 3D shape of the dermal filler (Radiesse® filler with or without test solution) injected, in vivo CT-scans were performed on Day 0: 1 h 15 (±10 min), 2 h (±15 min) and 4 h (±20 min), on Day 1 (24 h+1 h), Day 3, Day 7 and Day 14.
During CT acquisition on Day 0, the pigs received an IM injection of anesthesia. The animals were maintained under anesthesia until the CT acquisition at T=2 h (2 h after dermal filler injection session). Between these CT acquisitions, the animals were under surveillance in the recovery room on a heating mat with fluidotherapy. At the end of the CT acquisition at T=2 h, the pigs received a tattoo around each injected site. During the CT acquisitions at T=4 h and on Days 1, 3, 7 and 14, pigs received an IM injection of anesthesia. For the CT-scans, animals were positioned in dorsal recumbency and acquisitions were centered on the injection sites. The parameters of the CT-scan are described in Table 5.
The CT acquisition was analyzed with the software Avizo version 9.2.0. The objective of this analysis was to assess the degradation over time of the dermal filler injected by SC route after injection of different test solutions.
An image segmentation processing was performed on each CT acquisition. First, a manual pre-segmentation was performed around each nodule in order to roughly isolate the voxels corresponding to dermal filler product, which defined a Region of Interest (ROI). Second, an automatic segmentation was applied on the previously defined ROI using a global grey level thresholding procedure.
On day 0, a farm pig received ten (10) SC injections of Radiesse® dermal filler 0.5 mL (ventral area) (10 nodules in total). One hour after filler injections (T=1 h), 1.5 mL of one of eight test hyperosmotic solutions (1-8 solutions, Table 5) was injected at an injection site. One injection site was untreated and one injection site was treated with normal saline (0.9% wt/v NaCl).

A short description of test [2]: X-ray CT of volume, mean density and 3D shape of Radiesse nodules and injected hyperosmotic solutions (Example 4). Type of test: in vivo, Pig (Sus scrofa domesticus). As for the experimental part:
Pigs are injected by SC route with Radiesse® filler without Lidocaine (Test item). One hour after the Radiesse® filler injection, selected different hyperosmotic solutions are injected by SC route into the dermal filler nodules. For two Radiesse® filler nodules per pig, no additional product is injected; these nodules are used as controls.
The evolution over time of the volume and mean density of the Radiesse® filler nodules with injection of the different solutions are assessed by CT-scanner at selected time points: on Day 0, at about 1 hour (h) and 15 minutes (min), 2 h and 4 h after the Radiesse® filler injection and solution injection, and then, on Day 1 (about 24 h after Radiesse® filler injection), Day 3, Day 7 and Day 15.
On Day 0, 4 pigs received ten (10) SC injections of Radiesse® dermal filler (P20WK-EE-01) of about 500 μl/nodule in the flank (ventral area) at T=0. One hour after Radiesse® dermal filler injections (T=1 h), about 1.5 ml of different hyperosmotic solutions (P20WK-EE-02 to P20WK-EE-05) were each injected into 8 Radiesse® filler nodules. Two Radiesse® filler nodules per animal were not injected with hyperosmotic solution and served as controls.
A total of 7 CT-scans were performed at 1 h 15±10 min, 2 h±15 min, 4 h±20 min, 1 day (24 h±1 h), 3, 7 and 15 days after injection of the dermal filler, as described in FIG. 9A.
On Day 0 (TO), 10 SC injections of test item P20WK-EE-01 (Radiesse® dermal filler) were performed in the ventral area (five nodules on each flank of the ventral area). For each SC nodule, a theoretical volume of 500 μL was administered. One hour (±5 min) after injection of dermal filler, SC injections of the different solutions (prepared on Day −3) were performed into 8 nodules of dermal filler. For each injection of solution, a theoretical volume of 1.5 mL was administered (see, e.g., injection scheme in Table 11).
In order to measure the volume, the mean density and to visualize the 3D shape of the dermal filler SC injected (in presence or absence of different hyperosmotic solutions), in vivo CT-scans were performed on Day 0: 1 h 15 (±10 min), 2 h (±15 min) and 4 h (±20 min), on Day 1 (24 h±1 h), Day 3, Day 7 and Day 15.
The CT acquisitions are analyzed with the software Avizo version 9.2.0. The objective of this analysis was to assess the dispersion over time of the Radiesse® dermal filler injected by SC route after injection of different hyperosmotic solutions.
To achieve this goal, the evolution of these parameters is observed over time: • the volume of each nodule (Radiesse® dermal filler and solution separately), • the mean density of each nodule (Radiesse® dermal filler and solution separately), • the 3D shape of each nodule by visualization of the 3D model of each nodule at each time point (Radiesse® dermal filler with or without solution separately). Segmentation:
An image segmentation is performed on each CT acquisition on the […] reconstruction. At first, a manual pre-segmentation is performed around each nodule in order to roughly isolate the voxels corresponding to Radiesse® dermal filler and hyperosmotic solutions and defined a Region of Interest (ROI). Secondly, an automatic segmentation is applied on the ROI previously defined using a global grey level thresholding procedure. […] Similarly, all the voxels having a grey level between these HU values are selected in a ROI and corresponds to the pure solution or solution containing some dispersed Radiesse® dermal filler (see, FIG. 10).
Then, a 3D model of these selected voxels (see, FIG. 11) is obtained allowing the calculation of the total volume (in mm^3) and the mean density (in HU) of the two defined compartments of each nodule of Pure Radiesse® dermal filler and of each solution containing or not containing dispersed Radiesse® dermal filler.
The volume (in mm^3) of the ROI of Radiesse® dermal filler and the solutions corresponding to each nodule and the mean density (in HU) of each nodule are calculated at each time point.

Setting [3] is: listed as Hyperosmotic Saline (sol 1).

The values that follow come from US12239661B2, “Methods and compositions for treating undesired implanted tissue filler” (priority 2019, dated 2025).

Molecules are shown by their SMILES. Marks after values point to notes of the source that are not given here.

`[Cl-].[Na+]` [sol 1, Sodium chloride]: in test [1] (setting [3]), the “Change in Volume as percent of Injected Volume, Day 14/15” value (shortened to “Change in Volume as percent … Day 14/15”) was 175.89* percent; the “Change in Volume as percent of Injected Volume, Day 0 + 1 h 15” value was 161.28* percent; the “Change in Volume as percent of Injected Volume, Day 0 + 2 h” value (“Change in Volume as percent … Day 0 + 2 h” for short) was determined as 157.58%; the “Change in Volume as percent of Injected Volume, Day 0 + 4 h” value (from here on “Change in Volume as percent … Day 0 + 4 h”) is reported as 164.59* percent. In test [1] (setting [3]), the “Change in Volume as percent of Injected Volume, Day 1” value is recorded as 202.75%; the “Change in Volume as percent of Injected Volume, Day 3” value (from here on “Change in Volume as percent … Day 3”) stood at 199.27%; the “Change in Volume as percent of Injected Volume, Day 7” value (“Change in Volume as percent … Day 7” below) was 192.06* percent. The “effect on volume at the filler injection site” value in test [1] (listed as hyperosmotic NaCl) is listed as “significant decreased volume”.

With `O.O.O=P([O-])(O)O.[Na+]` [sol 2, Sodium dihydrogen phosphate dihydrate], in test [1], the “Change in Volume as percent … Day 14/15” value is reported as 179.72* percent; the “Change in Volume as percent … Day 0 + 2 h” value was determined as 151.58%; the “Change in Volume as percent … Day 0 + 4 h” value was 164.27%; the “Change in Volume as percent of Injected Volume, Day 1” value stood at 198.42%. In test [1], the “Change in Volume as percent … Day 3” value was determined as 201.11%; the “Change in Volume as percent … Day 7” value came to 201.97%; the “Change in Volume as percent of Injected Volume, Day 0 + 1 h 15” value stood at 156.57%.

As to `CC(=O)[O-].[Na+]` [sol 3, Sodium acetate], in test [1], the “Change in Volume as percent … Day 14/15” value is listed as 176.61* percent; the “Change in Volume as percent … Day 0 + 2 h” value is reported as 154.89%; the “Change in Volume as percent … Day 0 + 4 h” value was 165.88%; the “Change in Volume as percent of Injected Volume, Day 1” value turned out to be 202.12%. In test [1], the “Change in Volume as percent … Day 3” value was 197.50* percent; the “Change in Volume as percent … Day 7” value is 189.13* percent; the “Change in Volume as percent of Injected Volume, Day 0 + 1 h 15” value was 152.73%.

With `O.O.O.O.O.O.O.O=S(=O)([O-])[O-].[Mg+2]` [sol 5, Magnesium sulfate heptahydrate], in test [1], the “Change in Volume as percent … Day 14/15” value worked out at 186.95%; the “Change in Volume as percent … Day 0 + 2 h” value is 159.33%; the “Change in Volume as percent … Day 0 + 4 h” value is 158.84* percent; the “Change in Volume as percent of Injected Volume, Day 1” value is 188.43%. Moreover, in test [1], the “Change in Volume as percent … Day 3” value was 206.26* percent; the “Change in Volume as percent … Day 7” value was found to be 202.32%; the “Change in Volume as percent of Injected Volume, Day 0 + 1 h 15” value was 170.49* percent.

On to `OCC(O)CO` [sol 6, Glycerol], for which, in test [1], the “Change in Volume as percent … Day 14/15” value was 173.93* percent; the “Change in Volume as percent … Day 0 + 2 h” value is 156.43%; the “Change in Volume as percent … Day 0 + 4 h” value turned out to be 184.92%; the “Change in Volume as percent of Injected Volume, Day 1” value is recorded as 200.32%. Further, in test [1], the “Change in Volume as percent … Day 3” value is 197.65* percent; the “Change in Volume as percent … Day 7” value was 197.62* percent; the “Change in Volume as percent of Injected Volume, Day 0 + 1 h 15” value turned out to be 151.48%.

As for `OC[C@H]1O[C@@](CO)(O[C@H]2O[C@H](CO)[C@@H](O)[C@H](O)[C@H]2O)[C@@H](O)[C@@H]1O` [sol 8, Sucrose], in test [1], the “Change in Volume as percent … Day 14/15” value amounted to 180.45%; the “Change in Volume as percent … Day 0 + 2 h” value was 167.63%; the “Change in Volume as percent … Day 0 + 4 h” value was 190.95%; the “Change in Volume as percent of Injected Volume, Day 1” value was 202.96%. Further, in test [1], the “Change in Volume as percent … Day 3” value worked out at 207.85%; the “Change in Volume as percent … Day 7” value was 199.72%; the “Change in Volume as percent of Injected Volume, Day 0 + 1 h 15” value was 167.87* percent; the “effect on volume at the filler injection site” value is on record as “trend to decrease volume of filler”.

Regarding `O.O.O=C([O-])CC(O)(CC(=O)[O-])C(=O)[O-].[Na+].[Na+].[Na+]` [sol 9, Sodium citrate, dihydrate], the “Change in Volume as percent … Day 14/15” value in test [2] (Example 4 (Day 15), mean) was found to be 1969%. For the same compound, in test [2] (Example 4, mean), the “Change in Volume as percent of Injected Volume, Day 0 + 1 h 15” value is listed as 1488%; the “Change in Volume as percent … Day 0 + 2 h” value is listed as 1571%; the “Change in Volume as percent … Day 0 + 4 h” value is 1901%; the “Change in Volume as percent of Injected Volume, Day 1” value came out at 2210%. In addition, in test [2] (Example 4, mean), the “Change in Volume as percent … Day 3” value is 2010% and the “Change in Volume as percent … Day 7” value is on record as 2243%. Moreover, in test [2] (between −100 HU and 250 HU), the “average of the mean density of solution nodules, T=1 h 15” value was found to be 18.4±7.0 HU; the “average of the mean density of solution nodules, T=2 h” value was determined as 2.1±7.9 HU; the “mean volume of solution with potential dispersed Radiesse, T=2 h” value came out at 4319.7±989.2 mm^3; the “variation of the average of the mean density of solutions, Day 15 compared to T=1 h 15” value is given as 347.7%. Moreover, in test [2] (pure Radiesse >250 HU), the “average of the mean density of nodules, Day 1” value came out at 447.0±34.1 HU and the “average of the mean density of nodules, Day 3” value amounted to 478.2±64.8 HU.
